# Results from US4866176A, “8-Piperazinyl-1,7-naphthyridine derivative having pharmaceutical activity” (SS Pharmaceutical Co., Ltd., priority 1986, dated 1989).
# How the values were obtained:
# [1] = system: heart rate; experiment: Antiarrhythmic effect (chloroform, mice, ip); assay type: in vivo; conditions: positive = 1-200 per minute heart rate
# Experimental: Mice, age 5 weeks and weighing approximately 25 g, 6 of which consisted one group, were given a test compound which was dissolved in a 0.01 N-0.1 N hydrochloric acid solution (ip). Ten (10) minutes thereafter the mice were put into a sealed container which was filled with chloroform, their chests were incised promptly after confirming the respiratory arrest, and the heart rate was counted. Those with a 1-200 per minute heart rate were judged as positive in their antiarrhythmic effect.
# [2] = system: Edema; experiment: Antiinflammatory effect (carragenin-induced edema of rat foot, oral); assay type: in vivo, Wister rats; conditions: 30 mg/kg, carragenin 60 min after dosing, foot volume 3 hours thereafter
# Experimental: Wister rats (age 6 weeks), 5 of which consisted one group, were fasted for 18 hours and orally given a test compound which was dissolved or suspended in a 0.5% sodium carboxymethylcellulose (CMC-Na). Sixty (60) minutes after administration of the tested compound each rat was subcutaneously given 0.1 ml of 1% carragenin physiological saline at its right plantar, and 3 hours thereafter the volume of its foot (A) was measured. The rate of edematization was determined by the formula [(A-B)/B]×100, in which (A) is the thus-obtained volume of animals foot and (B) denots the corresponding volume before administration of the compound (B).
# The rate of edematization of controls which were subcutaneously given 0.1 ml of 1% carragenin physiological saline at their right plantars was also determined in the same manner. The rate of edema inhibition was determined on each of the tested compounds according to the following equation: [formula]
# The results are shown in Table 1, in which the compound numbers correspond those of Examples appearing hereinafter in this specification.
# [3] = system: right and left atrium muscles; experiment: Cardiotonic effect (positive inotropic effect on isolated guinea pig atrium muscles); parameters: species or system Hartley male guinea pigs; conditions: Cavia porcellus, 10^-5 g/ml, 32° C, maximum change of contractive force, read-out: Positive Inotropic Effect (% per the value obtained on controls)
# Experimental: Hearts of Hartley male guinea pigs, weighing 500-800 g, were taken out and their atrium muscles were enucleated in Krebs - hydrogencarbonate solution, to serve the same as samples for the test. The both ends of right and left atrium muscles with a spontaneous beat were fixed by means of Serres fines, and suspended, with their upper and lower portions being fixed, in a bath containing 20 ml of Krebs - hydrogencarbonate solution which was aerated by 95% O2 +5% CO2 at 32° C. Then contractive forces of the spontaneous beat were isometrically measured. After the samples were stabilized, the test compound dissolved in 1 N hydrochloric acid solution and diluted by physiological saline to a concentration of 10^-5 g/ml was charged into the bath. Maximum changes (%) of the contractive force after charging the test compound per the value obtained immediately before the charge were determined. The values obtained, which respresent a positive inotropic effect, were made a standard for the cardiotonic effect.
smiles,measurement,setting,value
"CC(=O)Nc1cc2cccnc2c(N2CCNCC2)n1 [Compound No. 1, 6-acetamido-8-(1-piperazinyl)-1,7-naphthyridine]",Animals exhibited positive antiarrhythmic/Animals tested,[1]; 12.5 mg/kg,5/6
same,Animals exhibited positive antiarrhythmic/Animals tested,[1]; 25.0 mg/kg,4/6
same,Edema Inhibition Rate (%),[2],64.8%
CC(=O)Nc1cc2cccnc2c(N2CCN(C=O)CC2)n1 [compound 2],activation at 10 µg/mL,[3],35.8%
same,Edema Inhibition Rate (%),[2],35.0%
CC(=O)Nc1cc2cccnc2c(N2CCN(C(C)=O)CC2)n1 [compound 3],activation at 10 µg/mL,[3],35.6%
CC(=O)Nc1cc2cccnc2c(N2CCN(C(=O)c3ccccc3)CC2)n1 [compound 4],Animals exhibited positive antiarrhythmic/Animals tested,[1]; 12.5 mg/kg,2/6
same,Animals exhibited positive antiarrhythmic/Animals tested,[1]; 25.0 mg/kg,4/6
"CC(=O)Nc1cc2cccnc2c(N2CCN(C(=O)c3ccc([N+](=O)[O-])cc3)CC2)n1 [compound 8, 6-acetamido-8-[4-(p-nitrobenzoyl)-1-piperazinyl]-1,7-naphthyridine]",Edema Inhibition Rate (%),[2],28.6%
COc1ccc(C(=O)N2CCN(c3nc(NC(C)=O)cc4cccnc34)CC2)cc1 [compound 9],Edema Inhibition Rate (%),[2],30.4%
COc1ccc(C(=O)N2CCN(c3nc(NC(C)=O)cc4cccnc34)CC2)cc1OC [compound 10],activation at 10 µg/mL,[3],16.7%
COc1cc(C(=O)N2CCN(c3nc(NC(C)=O)cc4cccnc34)CC2)cc(OC)c1OC [compound 11],Animals exhibited positive antiarrhythmic/Animals tested,[1]; 12.5 mg/kg,1/6
same,Animals exhibited positive antiarrhythmic/Animals tested,[1]; 25.0 mg/kg,6/6
CC(=O)Nc1cc2cccnc2c(N2CCN(c3cccc(Cl)c3)CC2)n1 [compound 15],Animals exhibited positive antiarrhythmic/Animals tested,[1]; 12.5 mg/kg,4/6
same,Animals exhibited positive antiarrhythmic/Animals tested,[1]; 25.0 mg/kg,4/6
CC(=O)Nc1cc2cccnc2c(N2CCN(c3ccc(F)cc3)CC2)n1 [compound 17],Animals exhibited positive antiarrhythmic/Animals tested,[1]; 12.5 mg/kg,3/6
same,Animals exhibited positive antiarrhythmic/Animals tested,[1]; 25.0 mg/kg,5/6
CC(=O)Nc1cc2cccnc2c(N2CCN(Cc3ccccc3)CC2)n1 [compound 22],activation at 10 µg/mL,[3],16.7%
same,Edema Inhibition Rate (%),[2],57.1%
